Laboratory results published in ChEMBL document CHEMBL1201862, “PubChem BioAssay data set” (2004).
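Where inhibition never reached the appropriate level, the endpoint shown equals the highest concentration tested. Otherwise, values were interpolated linearly from a five-concentration, 48-hour dose response in 96-well plates. Abbreviation: GI50, concentration required for 50% inhibition of growth.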 Active and inactive are the calls of the source. Rule as the data show it: active = GI50 up to about 1.1 µM and inactive = higher.

How the values were obtained:
Experiment in all cases: NCI tumour cell line growth inhibition, 48 h
CAKI-1 = tested on: CAKI-1
IGROV-1 = tested on: IGROV-1
A549 = tested on: A549
SN12C = tested on: SN12C
OVCAR-3 = tested on: OVCAR-3
SF-268 = tested on: SF-268
COLO 205 = tested on: COLO 205
SNB-19 = tested on: SNB-19
ACHN = tested on: ACHN
KM12 = tested on: KM12
PC-3 = tested on: PC-3
UACC-257 = tested on: UACC-257
RXF 393 = tested on: RXF 393
UACC-62 = tested on: UACC-62
A498 = tested on: A498
MOLT-4 = tested on: MOLT-4
RPMI-8226 = tested on: RPMI-8226
MDA-MB-435 = tested on: MDA-MB-435
MDA-N = tested on: MDA-N

Compound	GI50 (CAKI-1)	GI50 (IGROV-1)	GI50 (A549)	GI50 (SN12C)	GI50 (OVCAR-3)	GI50 (SF-268)	GI50 (COLO 205)	GI50 (SNB-19)	GI50 (ACHN)	GI50 (KM12)	GI50 (PC-3)	GI50 (UACC-257)	GI50 (RXF 393)	GI50 (UACC-62)	GI50 (A498)	GI50 (MOLT-4)	GI50 (RPMI-8226)	GI50 (MDA-MB-435)	GI50 (MDA-N)
CC(O)C1(O)C(O)CC(OC2c3cc4c(c(O)c3[C@@H]3C[C@@]2(C)OC32C=c3cc[nH]c3=N2)C(=O)c2cccc(O)c2C4=O)OC1C (some centres not stated)	1.33 µM (inactive)	0.592 µM (active)	0.433 µM (active)	0.607 µM (active)	1.08 µM (active)	1.79 µM (inactive)	0.697 µM (active)	2.34 µM (inactive)	0.759 µM (active)	1.07 µM (active)	1.23 µM (inactive)	1.48 µM (inactive)	1.05 µM (active)	1.31 µM (inactive)	1.29 µM (inactive)	0.334 µM (active)	0.948 µM (active)	1.63 µM (inactive)	1.81 µM (inactive)
c1ccc2cc(OCC3CO3)c(OCC3CO3)cc2c1 (configuration not stated)	4.09 µM (inactive)	1.3 µM (inactive)	3.68 µM (inactive)	2.37 µM (inactive)	13.4 µM (inactive)	0.891 µM (active)	12.8 µM (inactive)	5.3 µM (inactive)	2.18 µM (inactive)	5.7 µM (inactive)	12.7 µM (inactive)	10.2 µM (inactive)	< 0.01 µM (active)	2.84 µM (inactive)	2 µM (inactive)	0.562 µM (active)	1.92 µM (inactive)	10.1 µM (inactive)	10.1 µM (inactive)
CCCC(Sc1nc(N)nc2nc[nH]c12)C(=O)O (configuration not stated)	41 µM (inactive)	> 100 µM (inactive)	> 100 µM (inactive)	> 100 µM (inactive)	> 100 µM (inactive)	46.8 µM (inactive)	> 100 µM (inactive)	> 100 µM (inactive)	> 100 µM (inactive)	> 100 µM (inactive)	> 100 µM (inactive)	> 100 µM (inactive)	81.5 µM (inactive)	36.6 µM (inactive)	> 100 µM (inactive)	33.2 µM (inactive)	35.2 µM (inactive)	74.8 µM (inactive)	47.5 µM (inactive)
Nc1nc(Sc2ccc([N+](=O)[O-])cn2)c2nc[nH]c2n1	7.13 µM (inactive)	14.5 µM (inactive)	15.1 µM (inactive)	4.74 µM (inactive)	8.93 µM (inactive)	4.35 µM (inactive)	11.8 µM (inactive)	23.8 µM (inactive)	12.3 µM (inactive)	7.38 µM (inactive)	14 µM (inactive)	18 µM (inactive)	2.73 µM (inactive)	2.94 µM (inactive)	11.8 µM (inactive)	4.56 µM (inactive)	14 µM (inactive)	4.79 µM (inactive)	3.61 µM (inactive)
CC(C)c1cc(Cl)nc(Cl)n1	> 100 µM (inactive)	> 100 µM (inactive)	> 100 µM (inactive)	> 100 µM (inactive)	> 100 µM (inactive)	> 100 µM (inactive)	> 100 µM (inactive)	> 100 µM (inactive)	> 100 µM (inactive)	> 100 µM (inactive)	> 100 µM (inactive)	> 100 µM (inactive)	> 100 µM (inactive)	> 100 µM (inactive)	> 100 µM (inactive)	> 100 µM (inactive)	> 100 µM (inactive)	> 100 µM (inactive)	> 100 µM (inactive)
C/C(=N\NC(=S)N(C)C)c1ccccn1	0.186 µM (active)	< 0.01 µM (active)	0.0413 µM (active)	0.057 µM (active)	< 0.01 µM (active)	< 0.0317 µM (active)	< 0.01 µM (active)	1.47 µM (inactive)	< 0.0122 µM (active)	0.0307 µM (active)	< 0.01 µM (active)	< 0.01 µM (active)	0.41 µM (active)	< 0.0124 µM (active)	0.519 µM (active)	< 0.01 µM (active)	< 0.0379 µM (active)	0.221 µM (active)	0.305 µM (active)
Nc1ccc(-c2nc3cc(F)ccc3s2)cc1Cl	8.67 µM (inactive)	< 0.01 µM (active)	7.46 µM (inactive)	23.3 µM (inactive)	0.049 µM (active)	25.5 µM (inactive)	0.454 µM (active)	32.4 µM (inactive)	1.57 µM (inactive)	8.99 µM (inactive)	20 µM (inactive)	72.6 µM (inactive)	24 µM (inactive)	39.7 µM (inactive)	3.07 µM (inactive)	> 35.6 µM (inactive)	> 55.1 µM (inactive)	> 100 µM (inactive)	> 100 µM (inactive)
O=C(/C=C/c1ccc(O)c(O)c1)Oc1ccccc1	5.85 µM (inactive)	4.19 µM (inactive)	15.3 µM (inactive)	16 µM (inactive)	6.98 µM (inactive)	7.59 µM (inactive)	9.57 µM (inactive)	20.4 µM (inactive)	8.45 µM (inactive)	9.29 µM (inactive)	17.1 µM (inactive)	22.8 µM (inactive)	8.71 µM (inactive)	13.2 µM (inactive)	55 µM (inactive)	0.268 µM (active)	3.17 µM (inactive)	14.5 µM (inactive)	16.1 µM (inactive)
